According to PubChem BioAssay AID2305 (GlaxoSmithKline (GSK), 2010):
“And” between values parts separate entries of the source, which are not always exact repeats. Equal values may be shown once.

System: P. falciparum 3D7 growth, pLDH absorbance
Assay: P. falciparum 3D7 growth inhibition, dose response, strain 3D7 (AID 2305)

| SMILES | IC50 |
| --- | --- |
| Cc1cc(NC(c2ccc(Cl)cc2)c2ccc3cccnc3c2O)no1 (stereo unspecified) | 1090 nM |
| CCN(CC)CCNC(=O)c1ccc(NC(=O)c2cc3c(C)nn(-c4ccc(Cl)cc4)c3s2)cc1 | 250 nM |
| CC(C)CCN(Cc1cncn1Cc1cccc(Cl)c1)C(=O)c1cncc(-c2ccccc2)c1 | 760 nM |
| CS(=O)(=O)c1cccc(-c2cnc3[nH]cc(-c4ccc(C(=O)O)cc4)c3c2)c1 | 340 nM |
| Cc1cc(Nc2ccc(O)cc2)nc2cccc(O)c12 | 740 nM |
| Cc1cccc2[nH]c(-c3cccc(-c4ccc(CN5CCC(C(N)=O)CC5)cc4)c3)nc12 | 850 nM |
| O=C(NCCCN1CCOCC1)c1ccc(-c2cccc(NC(=O)c3ccc(Cl)c(Cl)c3)c2)cc1 | 680 nM |
| Cn1cncc1C(=O)NC1CCN(c2ccnc(Nc3ccc(F)cc3)n2)C1 (stereo unspecified) | 830 nM |
| Cc1ccccc1N1CCN(c2ccc(C(=O)NC(C)C)cn2)CC1 | 900 nM |
| CN(C)Cc1cccc(CNC(=O)c2sccc2OCc2ccc(Cl)cc2)c1 | 830 nM |
| CN1CCC(C(=O)Nc2cccc(-c3ccc(-c4nc5ccc(C(F)(F)F)cc5[nH]4)s3)c2)CC1 | 720 nM |
| CCCCc1cc(O)c2c(c1)OC(C)(C)C=C2C1=CCN(Cc2ccccc2)CC1 | 250 nM |
| CC1CN=C(c2ccc(NC(=O)c3ccc(C(=O)Nc4ccc(C5=NCC(C)N5)cc4)cc3)cc2)N1 (stereo unspecified) | 30 nM |
| Cc1ccc(NC(=O)NCCCCCN2CCC(c3c[nH]c4ccccc34)CC2)cc1I | 810 nM |
| O=C(Nc1cccc(-c2nc3ccccc3[nH]2)c1)c1ccc(-c2cccc([N+](=O)[O-])c2)o1 | 150 nM |
| COc1ccc(-c2nonc2NC(=O)c2cccc(Cl)c2)cc1OC | 880 nM |
| NOCCCCOc1cc(Cl)c(Cl)cc1Cl | 170 nM |
| Cc1cccc2[nH]c(-c3cc(-c4cccc(Cl)c4)cnc3N)nc12 | 120 nM |
| CCN(CC)CCNc1ccnc2[nH]c3ccc([N+](=O)[O-])cc3c12 | 200 nM |
| O=C(CNC1CCCCC1)c1ccc(O)c(O)c1 | 660 nM |
| CN(C)C(=S)N=Nc1c(O)[nH]c2ccccc12 | 1050 nM |
| COc1ccc2nccc([C@@H](O)CN3CCC(NC(=O)c4cc5ccccc5[nH]4)CC3)c2c1 | 970 nM |
| COc1ccc2nccc([C@@H](O)CN3CCC(NCc4ccc5c(c4)NC(=O)CS5)CC3)c2n1 | 750 nM |
| COc1cc(Nc2nccc(N3CCC(NC(=O)Nc4ccc5c(c4)OCO5)C3)n2)cc(OC)c1OC (stereo unspecified) | 760 nM |
| Cc1nnc(Sc2ncnc3scc(-c4ccc(F)cc4)c23)s1 | 810 nM |
| Cc1ccccc1Cn1c(CN2CCC(C(=O)NC3CC3)CC2)cc2ccccc21 | 480 nM |

| SMILES | IC50 |
| --- | --- |
| CC(C)CNC(=O)c1cncc(-c2ccc(CNC3Cc4ccccc4C3)cc2)c1 | 700 nM |
| Fc1cccc(COc2ccc(Nc3ncnc4sc(C#CCNC5CCC5)cc34)cc2Cl)c1 | 870 nM |
| Cc1ccc2nc(C)n(C3CCN(C(=O)C4(c5ccccc5)CC4)CC3)c2c1 | 820 nM |
| CN1CCC(Oc2ccc(CN3CC[C@H](NC(=O)c4cc(F)cc(F)c4)C3)c3ccccc23)C1 (stereo partly specified) | 840 nM |
| COc1ccc(OC)c(CNCC(O)c2cc(C(F)(F)F)cc(C(F)(F)F)c2)c1 (stereo unspecified) | 440 nM |
| Nc1c2ccccc2nc2cc(Cl)ccc12 | 710 nM |
| CCOc1ccc2ccccc2c1C(=O)Nc1cc(C)nn1-c1nc(C)cc(=O)[nH]1 | 1010 nM |
| CC(C)(C)NC(=O)C(c1ccc(F)cc1)N(C(=O)c1ccc(CN2CCOCC2)o1)c1ccc(C2CCCCC2)cc1 (stereo unspecified) | 920 nM |
| COc1ccc(-c2cc(C(=O)Nc3ccc4nc(-c5ccccc5)[nH]c4c3)[nH]n2)cc1 | 700 nM |
| COc1ccc(NC(=O)NCC2CCCN(CCCCCNC(=O)/C=C/c3ccc(Cl)c(Cl)c3)C2)c(OC)c1 (stereo unspecified) | 860 nM |
| CN1CCCC(CN2CCN(Cc3ccc(-c4ccc(-c5nc6ccc(F)cc6[nH]5)cc4)cc3)CC2)C1 (stereo unspecified) | 120 nM |
| CC(=O)c1cccc2[nH]c(C(=O)NC3CCC(CCN4CCc5ccc(C#N)cc5C4)CC3)cc12 (stereo unspecified) | 840 nM |
| COc1ccc2nccc([C@@H](O)CN3CCC(NCCOc4ccccc4C(F)(F)F)CC3)c2c1 | 750 nM |
| CC(=O)Nc1nc(C(=O)Nc2ccc(-c3ccc(-c4nc5ccccc5[nH]4)cc3)cc2)cs1 | 150 nM |
| N=C(N)c1ccc(NC(=O)Cc2nc3ccc(C(=N)N)cc3[nH]2)cc1 | 1370 nM |
| COc1ccc(F)cc1-c1ccc(C(=O)N2CCCN(c3ccc(C#N)cn3)CC2)cc1 | 110 nM |
| Fc1ccc2[nH]c(-c3ccccc3)nc2c1CN1CCC(N2CCCC2)CC1 | 720 nM |
| Cc1cc(O)cc2c(C3CCN(CC4CCN(C(=O)/C=C/c5ccc(Cl)c(Cl)c5)CC4)CC3)c[nH]c12 | 1090 nM |
| O=C(Nc1ccc(OC2CCN(Cc3ccccc3)C2)c(Cl)c1)c1ccco1 (stereo unspecified) | 410 nM |
| NC1=NC(Cc2ccccc2)N(c2ccc(Cl)cc2)C(N)=N1 (stereo unspecified) | 140 nM |
| Cn1nc(C(F)(F)F)cc1-c1ccc(C(=O)Nc2ccc3c(c2)CNCC3(C)C)s1 | 1010 nM |
| Cc1cc(N[C@@H](Cc2ccccc2)C(=O)NC2CCCC2)nc(NCc2ccccc2C)n1 | 1230 nM |
| N#Cc1cccc(CN2CCCN(Cc3cccc(C(=O)Nc4ccc(Cl)cc4)c3)CC2)c1 | 1180 nM |
| N#Cc1ccc2c(c1)CCN(CCC1CCC(NC(=O)Nc3ccnc4ccccc34)CC1)C2 (stereo unspecified) | 380 nM |
| CCOc1cc(Cc2cnc(N)nc2N)cc(Br)c1OC | 1440 nM |
| O=c1cc(NCCCNCc2cccc(OC(F)(F)F)c2)[nH]c2ccccc12 | 850 nM |

| SMILES | IC50 |
| --- | --- |
| COc1ccc2ncc(F)c(CCN3CC[C@H](NCc4cc5c(s4)CCCN5)[C@H](O)C3)c2n1 | 960 nM |
| Cc1nc2nc(N)nc(N)c2c(C)c1Cc1ccccc1Cl | 110 nM |
| O=C(/C=C/c1c(Cl)cccc1Cl)NC1CCC(CN2CCC(c3c[nH]c4ccccc34)CC2)CC1 (stereo unspecified) | 370 nM and 810 nM |
| Cc1ccc(CNC(=O)[C@H](CCCN)Nc2cc(C)nc(Nc3ccccc3)n2)cc1 | 1290 nM |
| COc1ccc(CCC(C)N2C[C@@H](N)[C@H](c3cn(C)c4cnccc34)C2)cc1 (stereo partly specified) | 1360 nM |
| O=C(Nc1ccnc2ccccc12)NC1CCN(Cc2ccccc2)CC1 | 990 nM |
| CC(O)C1CCCCN1C(=O)c1cccc(-c2ccc(-c3nc4ccccc4[nH]3)s2)c1 (stereo unspecified) | 800 nM |
| CC(=O)N/N=C/[C@H](CCc1ccccc1)NC(=O)[C@H](CC(C)C)NC(=O)c1ccc(OCCN2CCOCC2)cc1 | 220 nM |
| COc1ccc(CNc2nccc3ccc(-c4ccc5nccn5c4)cc23)cc1 | 880 nM |
| CC(C)(C)c1ccc(C(=O)Nc2cccc(Nc3c(C(=O)NCc4cccc(C(F)(F)F)c4)cnc4c(O)cccc34)c2)cc1 | 1090 nM |
| CCN1CCN(c2cc(C)c3cc(NC(=O)c4cccc(Cl)c4)ccc3n2)CC1 | 770 nM |
| NCC1CCCN1Cc1cccc(-c2cccc(-c3nc4ccc(F)cc4[nH]3)c2)c1 (stereo unspecified) | 810 nM |
| OC1(c2ccc(Br)cc2)CCN(C2CCN(Cc3ccccc3)CC2)CC1 | 600 nM |
| O=C(Nc1ccccc1N1CCOCC1)c1ncoc1-c1ccccc1C(F)(F)F | 1060 nM |
| CCN(C)CCCn1c(N(C)C)nc2cc(-n3cnc4cc(-c5ccc(Cl)cc5)sc4c3=O)ccc21 | 1090 nM |
| COCCNCc1cccc(-c2ccc(CN(C(=O)NC3CCCCC3)C3CCN(Cc4ccccc4)CC3)cc2)c1 | 760 nM |
| Oc1cccc(Nc2nc(NCC3CCCO3)c3ccccc3n2)c1 (stereo unspecified) | 810 nM |
| COc1ccc2nccc([C@@H](O)CN3CCC(NCC4COc5ccccc5O4)CC3)c2c1 (stereo partly specified) | 250 nM |
| Cc1cccc(C(=O)NC(NC(=S)Nc2ccc([N+](=O)[O-])cc2)C(Cl)(Cl)Cl)c1 (stereo unspecified) | 740 nM |
| NCc1ccc(CNCc2cccc(-c3ccc(-c4nc5ccc(C(F)(F)F)cc5[nH]4)cc3)c2)cc1 | 260 nM |
| COc1ccc2nccc([C@@H](O)CN3CCC(NCc4cc5cc(Cl)ccc5[nH]4)CC3)c2c1 | 130 nM |
| O=C(/C=C/c1cccc(C(F)(F)F)c1)NCCCCCN1CCN(C(=O)Nc2ccc(Cl)c(Cl)c2)CC1 | 930 nM |
| CN(CCCc1c[nH]c2ccccc12)CC1CCN(C(=O)/C=C/c2ccc(Cl)c(Cl)c2)CC1 | 750 nM |
| Cc1cc(C(=O)OCC(N)=O)c(C)n1-c1ccc(F)cc1 | 330 nM |
| Cc1ccnc2nc(C(=O)Nc3cc(C(F)(F)F)ccc3N3CCCCC3)nn12 | 60 nM |
| COc1cccc(NC(=O)Nc2ccc(Nc3nc(C)cc(N4CCCC4)n3)cc2)c1 | 200 nM |

| SMILES | IC50 |
| --- | --- |
| Clc1cccc(C=NNc2ccnc3ccccc23)c1 | 850 nM |
| O=C(Nc1cccc(-c2csc(-c3nc4ccccc4[nH]3)c2)c1)c1ccncc1 | 260 nM |
| O=C(Nc1ccc(Cl)cc1)c1cccc(S(=O)(=O)NC2CCN(CC3CCCCC3)CC2)c1 | 720 nM |
| CC1CN(Cc2cccc(F)c2)CCN1c1ccc(NC(=O)c2ccc(F)cc2)cc1 (stereo unspecified) | 580 nM |
| Cc1cc(N(C)C)nc(Nc2ccc(NC(=O)C3CCCCC3)cc2)n1 | 1110 nM |
| C=C[C@H]1CN(CCCCCCC)CC[C@H]1CC(=O)Nc1cnnc2ccc(OC)cc12 | 530 nM |
| CN1CCC(C(=O)Nc2ccc(-c3ccc(-c4nc5ccccc5[nH]4)cc3)cc2)CC1 | 980 nM |
| Oc1c(C(Nc2nc3ccccc3s2)c2ccccc2)ccc2cccnc12 (stereo unspecified) | 650 nM |
| CN(Cc1cccc(F)c1)C1CCN(c2cc(NC(=O)c3ccc(F)cc3)ccn2)CC1 | 1160 nM |
| c1ccc(-c2nc(Nc3nc4ccccc4[nH]3)[nH]c2-c2ccccc2)cc1 | 620 nM |
| Cc1cc(CNCCCCCCCNCc2ccc(Cl)cc2)ccc1O | 980 nM |
| O=C(NCCc1ccccc1)N(Cc1ccccc1-c1ccc(CNCCc2ccccc2)cc1)C1CCN(Cc2ccccc2)CC1 | 720 nM |
| O=C(Nc1ccc(C(F)(F)F)cc1)NC1CCN(c2ccnc3ccccc23)C1 (stereo unspecified) | 90 nM |
| CNC(=O)c1cnc(Nc2ccc(N3CCN(C)CC3)cc2)nc1Nc1cccc([N+](=O)[O-])c1 | 290 nM |
| COc1cc(Cc2cnc(N)nc2N)cc(CC(C)O)c1O (stereo unspecified) | 840 nM |
| OC(CNCc1ccccc1Oc1ccccc1)c1cccc(C(F)(F)F)c1 (stereo unspecified) | 710 nM |
| Oc1ccc(CNCCCCCCNCCc2ccc(Cl)cc2)cc1O | 990 nM |
| CC(C)(C)Nc1cc(C2CC2)nc(-c2ccccn2)n1 | 680 nM |
| COc1ccc(-n2ccnc2SCC(=O)Nc2cccc(C(F)(F)F)c2)c(OC)c1 | 220 nM |
| O=C(Nc1ccc(Br)cc1)N(CCN1CCOCC1)CC(O)COCc1ccc(Cl)c(Cl)c1 (stereo unspecified) | 930 nM |
| CCN(CC)C(=NCCCCCCN=C(NC(N)=NCc1cccc(Cl)c1)N(CC)CC)NC(N)=NCc1cccc(Cl)c1 | 210 nM |
| CCN1CCN(c2cc(C)c3cc(NC(=O)c4ccc(N(CC)CC)cc4)ccc3n2)CC1 | 960 nM |
| CCC1=C(C[C@H]2NCCc3cc(OC)c(OC)cc32)C[C@H]2c3cc(OC)c(OC)cc3CCN2C1 | 310 nM |
